Data reported in paper PMC5476196, “Uptake, biotransformation and elimination of selected pharmaceuticals in a freshwater invertebrate measured using liquid chromatography tandem mass spectrometry” (Chemosphere, 2017).
“And” between values parts separate entries of the source, which are not always exact repeats. Equal values may be shown once. “Also recorded” adds a separate entry of the source. Where a name gives a salt, the structure may show the parent alone.

Columns and labels:
Gammarus pulex [1] = assay: in vivo; conditions: for BCFss: steady-state BCF estimation, 48 h
Procedure: (§1) Individual adult organisms (n = 25), both male and female (>5 mg wet weight) were placed in Pyrex glass beakers. G. pulex were carefully transferred to beakers using blunt forceps to avoid any harm to the organisms before exposure. Each beaker contained 25 organisms in 200 mL of exposure media (AFW and test compound). […] All exposure media contained <0.001% of organic solvent (methanol). A total of 300 organisms were used per compound exposure and were sampled for n = 3 per time-point. […] These were subsequently analysed for background contamination. […] Each animal specimen was rinsed with ultra-pure water and then frozen at −20 °C.
(§2) Water samples collected from exposure experiments were filtered using Whatman filters (0.2 μM) and directly injected onto the LC-MS/MS for analysis. For G. pulex, A mass of 50 mg of lyophilised and ground material was extracted by glass bead pulverisation in 5 mL of acetonitrile and diluted with 100 mL of ammonium acetate buffer (10 mM) for loading onto Waters HLB solid phase extraction (SPE) cartridges (6 cc, 200 mg sorbent).
(§3) Briefly, separations were performed on an Agilent HP1100 LC system configured with a Waters SunFire reversed-phase C18 column (150 mm × 2.1 mm, 2.5 μM particle size). […] Detection was performed using a Waters Quattro triple quadrupole mass spectrometer with electrospray ionisation operated in positive and negative polarity switching mode. Quantification of analytes was performed using 3-point internal standard matrix-matched calibration using the peak area ratio of non-labelled analyte (precursor range: 50–300 ng g^−1, biotransformation product range: 50–150 ng g^−1) to the stable isotope labelled internal standard (SIL-IS) (100 ng g^−1).
(§4) Herein, the authors define BCFtotal as the summation of the BCF of both parent/precursor and biotransformation products (i.e. the total body burden). Whereas, BCFparent will be used to describe the BCF determined for the parent compound alone.

in vivo = conditions: both, Gammarus pulex, in vivo, G. pulex; for concentration at 6 h: 6h Mean; for concentration at 24 h: 24h Mean
Procedure: as §1, §2, §3, §4

[2] = for stability of aqueous pharmaceutical concentration: across the exposure period; for Concentration, 24 h: exposure media after 24 h of exposure with Day 1 solution; for Concentration, 24 h / Concentration, Day 1 (initial pharmaceutical concentration on day 1): n = 3; for Concentration, 48 h: exposure media after 24 h of exposure with Day 2 solution, n = 3 (propranolol n = 2); for Concentration, Day 2 (initial pharmaceutical concentration on day 2): n = 2; for Concentration, Day 1 (initial pharmaceutical concentration on day 1): nominal 1 μg L^−1 (propranolol 10 μg L^−1)
Procedure: as §1, §2

[3] = system: Pimephales notatus and I. punctatus; parameters: method as in Garcia et al., 2012; conditions: depending on tissue; ref Garcia et al., 2012; cited from earlier work
Gammarus fossarum = conditions: ref Sordet et al., 2016; cited from earlier work
[4] = system: Mytilus galloprovincialis; conditions: ref Gomez et al., 2012; cited from earlier work
G. pulex = conditions: ref Miller et al., 2016, cited from earlier work; for SeqBCF, Full Design: sequential BCF; for SeqBCF^a, Full Design: sequential estimation using minitab; for SimBCF, Full Design: simultaneous BCF
sturgeons = system: sturgeons; parameters: method as in Hou et al., 2003; conditions: ref Hou et al., 2003; cited from earlier work
Gammarus pulex [5] = assay: Biotransformation products in G. pulex after exposure to propranolol, carbamazepine or diazepam (LC-MS/MS); conditions: for k2 of biotransformation product: depuration phase; for detection of biotransformation product in G. pulex at 96 h: after exposure to the precursor compound, end of depuration
Procedure: as §1, §3
A matrix effect and recovery experiment was performed for these additional analytes before exposures were performed (SI Table S5).

[6] = both, Gammarus pulex, in vivo, pH 8.19
[7] = pH 8.19, internal concentration at the end of the uptake phase, 48 h, exposure 1 μg L^−1 (propranolol 10 μg L^−1)
[8] = pH 8.19, Concentration, n=3, exposure 1 μg L^−1 (warfarin, propranolol 10 μg L^−1)
[9] = pH 8.19, Concentration, 48h Mean, n=3, exposure 1 μg L^−1 (warfarin, propranolol 10 μg L^−1)
[10] = k1 re-calculated over time intervals of the uptake phase
[11] = sequential, Levenberg-Marquardt algorithm, exposure 1 μg L^−1 (warfarin, propranolol 10 μg L^−1)
[12] = sequential, linear regression on elimination data, exposure 1 μg L^−1 (warfarin, propranolol 10 μg L^−1)
[13] = simultaneous parametrisation, exposure 1 μg L^−1 (warfarin, propranolol 10 μg L^−1)

## COCCc1ccc(OCC(O)CNC(C)C)cc1 (racemic) [Metoprolol, (±)-metoprolol (+)-tartrate salt]
Gammarus pulex [1]; [6]
  BCFparent, Sequential a: 39 L/kg
  BCFparent, Sequential b: 37 L/kg
  BCFparent, Simultaneous: 17 L/kg
  k1 (uptake rate constant), Simultaneous: 0.4413
  k1, Sequential a: 0.2788
  k1, Sequential b: 0.2855
  k2 (depuration rate constant), Simultaneous: 0.0259
  k2, Sequential a: 0.0071
  k2, Sequential b: 0.0078
Gammarus pulex [1]
  BCFss: 9
In vivo; [7]
  concentration at 48 h: ≤ 51 ng/g
[2]
  stability of aqueous pharmaceutical concentration: remained stable
  Concentration, 24 h: 0.72 ng/mL
  Concentration, 48 h: 0.87 µg/L
[2]; exposure media
  Concentration, Day 2 (initial pharmaceutical concentration on day 2): 0.86 ng/mL
  Concentration, Day 1 (initial pharmaceutical concentration on day 1): 0.77 ng/mL

## NC(=O)N1c2ccccc2C=Cc2ccccc21 [Carbamazepine, carbamazepine]
[3]
  BCF in two species of fish (Pimephales notatus and I. punctatus): < 7 L/kg
Gammarus pulex [1]; [6]
  BCFparent from the average of k1 over the 48 h time interval: 26 L/kg
In vivo; [8]
  concentration at 6 h: 8 ng/g
  concentration at 24 h: 11 ng/g
In vivo; [9]
  concentration at 48 h: 14 ng/g
In vivo; [7]
  concentration at 48 h: ≤ 51 ng/g
[2]
  stability of aqueous pharmaceutical concentration: remained stable
  Concentration, 24 h: 1.01 ng/mL
  Concentration, 48 h: 1.07 µg/L
[2]; exposure media
  Concentration, Day 2 (initial pharmaceutical concentration on day 2): 1.08 ng/mL
  Concentration, Day 1 (initial pharmaceutical concentration on day 1): 1.12 ng/mL
Gammarus fossarum
  BCF in Gammarus fossarum: 5 L/kg

## CN1C(=O)CN=C(c2ccccc2)c2cc(Cl)ccc21 [Diazepam, diazepam]
Gammarus pulex [1]; [10]
  BCFparent from the average of k1 over the 48 h time interval: 48 L/kg
Gammarus pulex [1]; [11]
  BCFparent, Sequential a: 58 L/kg
  k1, Sequential a: 2.6469
  k2, Sequential a: 0.046
Gammarus pulex [1]; [12]
  BCFparent, Sequential b: 53 L/kg
  k1, Sequential b: 3.0917
  k2, Sequential b: 0.0582
Gammarus pulex [1]; [13]
  BCFparent, Simultaneous: 41 L/kg
  k2 (depuration rate constant), Simultaneous: 0.2349
Gammarus pulex [1]
  BCFss: 45
In vivo; [8]
  concentration at 6 h: 31 ng/g
  concentration at 24 h: 37 ng/g
[4]
  BCF in marine mussel Mytilus galloprovincialis: 51 L/kg
[2]
  Concentration, 24 h: 0.86 ng/mL
  Concentration, 48 h: 0.89 µg/L
[2]; exposure media
  Concentration, Day 2 (initial pharmaceutical concentration on day 2): 1.04 ng/mL
  Concentration, Day 1 (initial pharmaceutical concentration on day 1): 1.02 ng/mL

## O=C(O)Cc1ccccc1Nc1c(Cl)cccc1Cl [Diclofenac]
G. pulex
  SeqBCF, Full Design: 21
  SeqBCF^a, Full Design: 27
  SimBCF, Full Design: 14

## COc1ccc(CC(C)NCC(O)c2ccc(O)c(NC=O)c2)cc1 (stereo not drawn) [Formoterol]
G. pulex
  SeqBCF, Full Design: 33
  SeqBCF^a, Full Design: 18
  SimBCF, Full Design: 14

## CN(C)CCCN1c2ccccc2CCc2ccccc21 [Imipramine]
G. pulex
  SeqBCF, Full Design: 4533
  SeqBCF^a, Full Design: 3811
  SimBCF, Full Design: 212

## CC(C)NCC(O)COc1cccc2ccccc12 (stereo not drawn) [Propranolol, Propranolol hydrochloride]
[2]
  Concentration, 24 h: 8.92 ng/mL
  Concentration, 48 h: 6.41 μg L^−1 and 6.41 ^a μg L^−1
[2]; exposure media, after the first 24 h
  decline of aqueous concentration: 29%
[2]; exposure media
  Concentration, Day 2 (initial pharmaceutical concentration on day 2): 8.98 ng/mL
  Concentration, Day 1 (initial pharmaceutical concentration on day 1): 9.22 ng/mL

## Cc1cc(C)nc(NS(=O)(=O)c2ccc(N)cc2)n1 [Sulfamethazine, sulfamethazine]
sturgeons
  BCF in sturgeons: 1 L/kg
Gammarus pulex [1]; exposure 1 μg L^−1
  detection of parent compound in G. pulex samples: not detected in any sample; also recorded: no peaks were detected
[2]
  stability of aqueous pharmaceutical concentration: remained stable
  Concentration, 24 h: 0.99 ng/mL
  Concentration, 48 h: 0.71 µg/L
[2]; exposure media
  Concentration, Day 2 (initial pharmaceutical concentration on day 2): 0.89 ng/mL
  Concentration, Day 1 (initial pharmaceutical concentration on day 1): 1.06 ng/mL

## CN1C(=O)C(O)N=C(c2ccccc2)c2cc(Cl)ccc21 (stereo not drawn) [Temazepam, temazepam]
Gammarus pulex [5]; G. pulex, after exposure to the precursor compound (propranolol 10 μg L^−1, diazepam 1 μg L^−1)
  mean concentration of biotransformation product at 48 h (end of the uptake phase): 6 ± 3 ng g^−1 dw
Gammarus pulex [5]; G. pulex, diazepam exposure
  k2 of biotransformation product: 0.016 day⁻¹
Gammarus pulex [5]
  detection of biotransformation product in G. pulex at 96 h: not detectable
Gammarus pulex [1]; [10]
  BCFparent from the average of k1 over the 48 h time interval: 40 L/kg
Gammarus pulex [1]; [11]
  BCFparent, Sequential a: 41 L/kg
  k1, Sequential a: 2.8514
  k2, Sequential a: 0.0702
Gammarus pulex [1]; [12]
  BCFparent, Sequential b: 41 L/kg
  k1, Sequential b: 2.751
  k2, Sequential b: 0.0669
Gammarus pulex [1]; [13]
  BCFparent, Simultaneous: 37 L/kg
  k1 (uptake rate constant), Simultaneous: 4.3326
  k2 (depuration rate constant), Simultaneous: 0.1186
Gammarus pulex [1]
  BCFss: 38
In vivo; [8]
  concentration at 6 h: 20 ng/g
  concentration at 24 h: 32 ng/g
In vivo; [9]
  concentration at 48 h: 38 ng/g
In vivo; [7]
  concentration at 48 h: ≤ 51 ng/g
[2]
  stability of aqueous pharmaceutical concentration: remained stable
  Concentration, 24 h: 0.85 ng/mL
  Concentration, 48 h: 1.03 µg/L
[2]; exposure media
  Concentration, Day 2 (initial pharmaceutical concentration on day 2): 1.17 ng/mL
  Concentration, Day 1 (initial pharmaceutical concentration on day 1): 0.96 ng/mL

## CC(C)(C)NCC(O)c1cc(O)cc(O)c1 (stereo not drawn) [Terbutaline]
G. pulex
  SeqBCF, Full Design: 19
  SeqBCF^a, Full Design: 22
  SimBCF, Full Design: 12

## COc1cc(Cc2cnc(N)nc2N)cc(OC)c1OC [Trimethoprim]
[2]
  Concentration, 24 h: 1.01 ng/mL
  Concentration, 48 h: 0.97 µg/L
[2]; exposure media
  Concentration, Day 2 (initial pharmaceutical concentration on day 2): 0.99 ng/mL
  Concentration, Day 1 (initial pharmaceutical concentration on day 1): 1.09 ng/mL

## NC(=O)N1c2ccccc2C2OC2c2ccccc21 (stereo not drawn) [carbamazepine-10,11-epoxide]
Gammarus pulex [5]
  detection of biotransformation product in G. pulex at 96 h: not detected
Gammarus pulex [5]; carbamazepine exposure, 24 h and 48 h
  detection of biotransformation product in G. pulex: detection
Gammarus pulex [5]; carbamazepine exposure, signals below signal to noise ratio of 10:1
  quantifiability of biotransformation product in G. pulex: not quantifiable

## O=C1CN=C(c2ccccc2)c2cc(Cl)ccc2N1 [nordiazepam]
Gammarus pulex [5]; G. pulex, diazepam exposure
  concentration of biotransformation product (higher than the parent compound): 94 ng g^−1 dw
  k2 of biotransformation product: 0.0194 day⁻¹
Gammarus pulex [5]; G. pulex, diazepam exposure, time not stated
  mean concentration of biotransformation product reached: 64 ± 27 ng g^−1 dw

## O=C1Nc2ccc(Cl)cc2C(c2ccccc2)=NC1O (stereo not drawn) [oxazepam]
Gammarus pulex [5]; G. pulex, diazepam exposure
  reduction of mean internal concentration over the 48 h depuration period: 21 ng g^−1 dw
  k2 of biotransformation product: 0.009 day⁻¹
Gammarus fossarum
  BCF in Gammarus fossarum: 22 L/kg
